Reference: article PMC6386598 (Cell chemical biology, 2018)

Assay: Calcein leakage from SUVs, stated for several vesicle compositions together
Conditions: control peptide; all SUVs tested: PC:PE (60:40), PC:PE (80:20), PC:PG (60:40)

For melittin, the “calcein leakage (in words)” value was “induced calcein leakage from all SUVs tested”.
